Where no end group is shown, it is not given here.

As usually defined, the IC50 is the concentration that gives 50% inhibition. A low value points to inhibition by little substance.

For experiment [1], the target named is T1, PTH1R (Homo sapiens, UniProt Q03431).
T1 sequence (Q03431 27-593): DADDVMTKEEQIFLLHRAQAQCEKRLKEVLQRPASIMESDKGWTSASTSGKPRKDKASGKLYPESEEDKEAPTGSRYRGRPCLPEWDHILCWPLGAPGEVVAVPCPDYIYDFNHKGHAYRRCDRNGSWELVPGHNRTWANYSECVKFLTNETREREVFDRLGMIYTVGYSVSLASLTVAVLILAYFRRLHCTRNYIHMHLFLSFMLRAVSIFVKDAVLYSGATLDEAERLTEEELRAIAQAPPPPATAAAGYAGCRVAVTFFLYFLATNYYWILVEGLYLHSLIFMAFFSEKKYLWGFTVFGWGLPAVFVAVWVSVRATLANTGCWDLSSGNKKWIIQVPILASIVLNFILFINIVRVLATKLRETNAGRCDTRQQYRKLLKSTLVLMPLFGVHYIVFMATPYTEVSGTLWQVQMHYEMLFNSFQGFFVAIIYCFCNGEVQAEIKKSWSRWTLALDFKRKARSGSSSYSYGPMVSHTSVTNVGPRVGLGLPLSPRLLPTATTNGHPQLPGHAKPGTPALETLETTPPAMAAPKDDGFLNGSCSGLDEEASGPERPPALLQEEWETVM
The experiment is described as follows: Inhibition of agonist-stimulated cAMP accumulation in HKrk-B7 cells. Type of experiment: cell-based. Also noted: expressed in transfected cells. As to conditions: agonist PTH(1-34), PTHrP(1-36) or PTHrP(1-20)/TIP(23-39) at 1 nM (about half-maximal). The source says: (§1) FIG. 4A-4F. Inhibition of agonist-stimulated cAMP accumulation in HKrk-B7 cells (FIG. 4A-4C) or SaOS-2 cells (FIG. 4D-4F). […] Data are expressed as % of half-maximal cAMP accumulation and represent the results (mean±SE) of at least three independent experiments.
(§2) Na^125I (specific activity: 2,000 Ci/mmol) was purchased from DuPont/NEN, Boston, Mass. Fetal bovine serum, 3-isobutyl-1-methyl-xanthine (IBMX), and BSA were from Sigma, St. Louis, Mo., and trifluoroacetic acid (TFA) was from Pierce, Rockford, Ill. Radiolabeled rPTH(1-34) and PTHrP(1-36) were prepared by the chloramine-T method, followed by HPLC purification using a 30-50% ACN/0.1% TFA gradient over 30 minutes; radioreceptor assays were performed in 24-well plates as previously described (Gardella, T. J., et al., J. Biol. Chem. 271:19888-19893 (1996); Fukayama, S. et al., Endocrinology 134:1851-1858 (1994)). […] The entire lysate was counted for γ-irradiation. Specific binding was determined after subtracting radioactivity bound in the presence of maximal concentrations of unlabeled competing peptide (10^−6 M). […] Data were analyzed and graphically illustrated using the graph-pad prism software package.

Another experiment deals with T2, endogenous PTH1R (Homo sapiens, UniProt Q03431).
T2 construct: SaOS-2 cells expressing the wild-type PTH1R endogenously; endogenous in cells; host or cells: SaOS-2 human osteosarcoma cells
T2 sequence (Q03431 27-593): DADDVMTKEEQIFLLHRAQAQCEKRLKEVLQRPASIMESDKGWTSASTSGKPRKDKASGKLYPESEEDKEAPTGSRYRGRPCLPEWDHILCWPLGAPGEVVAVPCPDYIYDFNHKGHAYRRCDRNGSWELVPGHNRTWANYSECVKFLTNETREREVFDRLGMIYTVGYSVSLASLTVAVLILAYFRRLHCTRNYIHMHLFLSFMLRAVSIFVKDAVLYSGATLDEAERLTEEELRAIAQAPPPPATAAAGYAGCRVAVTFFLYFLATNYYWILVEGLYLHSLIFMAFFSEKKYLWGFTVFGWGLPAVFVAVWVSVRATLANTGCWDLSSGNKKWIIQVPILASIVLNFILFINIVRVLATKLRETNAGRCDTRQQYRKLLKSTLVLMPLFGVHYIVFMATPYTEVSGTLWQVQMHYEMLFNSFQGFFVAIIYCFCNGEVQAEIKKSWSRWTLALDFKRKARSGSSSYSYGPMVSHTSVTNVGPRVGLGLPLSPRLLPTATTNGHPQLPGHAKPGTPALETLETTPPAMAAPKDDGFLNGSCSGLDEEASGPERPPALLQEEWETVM
The experiment is described as follows: Ligand-stimulated cAMP accumulation in SaOS-2 cells. In kind it is cell-based. Particulars: SaOS-2 cells. As to the method:
(§3) DMEM, Trypsin/EDTA, and penicillin G/streptomycin and horse serum were from Gibco/BRL, Life Technologies, Gaithersburg, Md. LLC-PK, expressing the recombinant human PTH1R (HKrk-B7 cells) and SaOS-2 cells expressing the wild-type PTH1R endogenously were cultured in DMEM supplemented with 10% heat-inactivated fetal bovine serum, 100 U/ml penicillin, 100 μg/ml streptomycin, as previously described (Gardella, T. J., et al., J. Biol. Chem. 271:19888-19893 (1996); Fukayama, S., et al., Endocrinology 134:1851-1858 (1994)); both cell lines were maintained in a humidified atmosphere containing 95% air and 5% CO2. After seeding, medium was replaced daily, until cells were used for radioligand binding or cAMP accumulation assays.
as §2, with “(1994)). In brief, each well (final volume 500 μl) contained binding buffer (BB; 50 mM Tris-HCl (pH 7.7), 100 mM NaCl, 5 mM KCl, 2 mM CaCl2, 5% heat-inactivated horse serum, and 0.5% heat-inactivated fetal bovine serum), the ^125I-labeled PTH or PTHrP analog (100,000 to 200,000 cpm) was incubated in the absence or presence of increasing concentrations of unlabeled peptides.” for “(1994)).”, “package. […]” for “package.”
In general terms: cAMP levels reflect the balance of adenylyl cyclase and phosphodiesterase activity.

The next experiment addresses T3, human PTH2 receptor (Homo sapiens, UniProt P49190).
T3 construct: expressed in transfected cells
The experiment is described as follows: Ligand-stimulated cAMP accumulation in hPR2-20 LLCPK1 cells. In kind it is cell-based.

Experiment [2] concerns the target T1, PTH1R. The experiment in a line: Ligand-stimulated cAMP accumulation in HKrk-B7 cells. As to conditions: HKrk-B7 cells. In kind it is cell-based. The arrangement: expressed in transfected cells. The protocol: as §3
Na^125I (specific activity: 2,000 Ci/mmol) was purchased from DuPont/NEN, Boston, Mass. Fetal bovine serum, 3-isobutyl-1-methyl-xanthine (IBMX), and BSA were from Sigma, St. Louis, Mo., and trifluoroacetic acid (TFA) was from Pierce, Rockford, Ill. Radiolabeled rPTH(1-34) and PTHrP(1-36) were prepared by the chloramine-T method, followed by HPLC purification using a 30-50% ACN/0.1% TFA gradient over 30 minutes; radioreceptor assays were performed in 24-well plates as previously described (Gardella, T. J., et al., J. Biol. Chem. 271:19888-19893 (1996); Fukayama, S. et al., Endocrinology 134:1851-1858 (1994)). In brief, each well (final volume 500 μl) contained binding buffer (BB; 50 mM Tris-HCl (pH 7.7), 100 mM NaCl, 5 mM KCl, 2 mM CaCl2, 5% heat-inactivated horse serum, and 0.5% heat-inactivated fetal bovine serum), the ^125I-labeled PTH or PTHrP analog (100,000 to 200,000 cpm) was incubated in the absence or presence of increasing concentrations of unlabeled peptides. After 4 h at 16° C., buffer was completely removed, the cells were rinsed with cold BB and lysed with 1 M NaOH. The entire lysate was counted for γ-irradiation. Specific binding was determined after subtracting radioactivity bound in the presence of maximal concentrations of unlabeled competing peptide (10^−6 M). Agonist-dependent stimulation of cAMP accumulation by HKrk-B7 and SaOS-2 cells (48-well plates; stimulation at room temperature for 45 minutes) and the subsequent measurement of cAMP by radioimmunoassay was performed as previously described (Gardella, T. J., et al., J. Biol. Chem. 271:19888-19893 (1996); Bergwitz, C., et al., Endocrinology 139:723-732 (1998)). Data were analyzed and graphically illustrated using the graph-pad prism software package.
The values for EC50 and Vmax (mean±SE) are derived from at least three independent experiments.

Experiment [3] concerns the target T1, PTH1R. The experiment is described as follows: Inhibition of agonist-stimulated cAMP accumulation in SaOS-2 cells. In kind it is cell-based. As to conditions: SaOS-2 cells (stated for both cell lines); agonists 0.15-0.3 nM. The arrangement: expressed in transfected cells.
Source text: as §1, §2

Experiment [4] concerns the target T1, PTH1R. Particulars: cited from earlier work.

T3 sequence (P49190 25-550): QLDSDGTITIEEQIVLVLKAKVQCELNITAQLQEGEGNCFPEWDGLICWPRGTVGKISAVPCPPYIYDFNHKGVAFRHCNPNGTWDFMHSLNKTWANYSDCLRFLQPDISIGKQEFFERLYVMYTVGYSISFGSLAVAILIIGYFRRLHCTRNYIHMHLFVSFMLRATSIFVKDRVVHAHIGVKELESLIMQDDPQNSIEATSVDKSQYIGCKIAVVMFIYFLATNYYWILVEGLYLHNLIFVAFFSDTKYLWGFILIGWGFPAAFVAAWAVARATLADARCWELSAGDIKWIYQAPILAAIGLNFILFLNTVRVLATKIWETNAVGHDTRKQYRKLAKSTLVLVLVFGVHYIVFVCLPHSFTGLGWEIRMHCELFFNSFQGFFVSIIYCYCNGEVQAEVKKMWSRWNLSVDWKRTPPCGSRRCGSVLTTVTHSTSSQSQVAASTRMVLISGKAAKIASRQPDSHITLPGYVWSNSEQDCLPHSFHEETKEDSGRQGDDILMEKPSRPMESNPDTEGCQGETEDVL

On to `CC[C@H](C)[C@H](NC(=O)[C@H](CC(C)C)NC(=O)[C@H](Cc1c[nH]cn1)NC(=O)[C@H](Cc1c[nH]cn1)NC(=O)[C@H](CC(C)C)NC(=O)[C@H](Cc1c[nH]c2ccccc12)NC(=O)[C@H](Cc1ccccc1)NC(=O)[C@H](CCCNC(=N)N)NC(=O)[C@H](CCCNC(=N)N)NC(=O)[C@H](CCCNC(=N)N)NC(=O)[C@H](CC(C)C)NC(=O)[C@H](CC(=O)O)NC(=O)[C@H](CCC(N)=O)NC(=O)[C@@H](NC(=O)[C@H](CO)NC(=O)[C@H](CCCCN)NC(=O)[C@@H](Cc1c[nH]c2ccccc12)NC(=O)[C@H](CC(C)C)NC(=O)[C@H](CC(=O)O)NC(=O)[C@H](Cc1c[nH]cn1)NC(=O)[C@H](CC(C)C)NC(=O)[C@@H](N)CC(C)C)[C@@H](C)CC)C(=O)N[C@@H](C)C(=O)N[C@@H](CCC(=O)O)C(=O)N[C@H](C(=O)N[C@@H](Cc1c[nH]cn1)C(=O)N[C@H](C(=O)N[C@@H](C)C(=O)N[C@@H](CCC(=O)O)C(=O)N[C@@H](Cc1ccc(O)cc1)C(N)=O)[C@@H](C)O)[C@@H](C)CC` [PTHrP(7-36), [Leu^11, D-Trp^12, Trp^23, Tyr^36]PTHrP(7-36)amide], for which, at PTH1R [1], the IC50 is around 100 nM.

`CSCC[C@H](NC(=O)[C@H](Cc1ccc(O)cc1)NC(=O)[C@H](CO)NC(=O)[C@H](CC(N)=O)NC(=O)[C@H](CC(C)C)NC(=O)[C@H](Cc1c[nH]c2ccccc12)NC(=O)[C@H](Cc1c[nH]cn1)NC(=O)[C@H](CCCNC(=N)N)NC(=O)[C@H](CCCNC(=N)N)NC(=O)[C@H](CCC(=O)O)NC(=O)[C@H](CC(C)C)NC(=O)[C@H](C)NC(=O)[C@H](C)NC(=O)[C@H](CC(C)C)NC(=O)[C@H](CC(C)C)NC(=O)[C@H](CCCNC(=N)N)NC(=O)[C@H](C)NC(=O)[C@H](CCCNC(=N)N)NC(=O)[C@H](CCC(=O)O)NC(=O)[C@H](CCCNC(=N)N)NC(=O)[C@H](Cc1ccccc1)NC(=O)[C@H](C)NC(=O)[C@H](C)NC(=O)[C@H](CC(=O)O)NC(=O)[C@H](CC(=O)O)NC(=O)[C@H](C)NC(=O)[C@H](CC(C)C)NC(=O)[C@H](C)NC(=O)[C@H](CC(C)C)NC(=O)[C@@H](N)CO)C(=O)N[C@@H](Cc1c[nH]cn1)C(=O)N[C@@H](CCCCN)C(=O)N[C@@H](CC(C)C)C(=O)N[C@@H](CC(C)C)C(=O)N[C@H](C(=O)N[C@@H](CC(C)C)C(=O)N[C@@H](CC(=O)O)C(=O)N[C@@H](C)C(=O)N1CCC[C@H]1C(N)=O)C(C)C` [TIP(1-39), reference compound]: the “stimulation of cAMP accumulation (in words)” value on endogenous PTH1R is “failed to stimulate cAMP accumulation”. Further, the “maximum cAMP accumulation” value on human PTH2 receptor is on record as 136.5±4.9 pmol/well. The “stimulation of cAMP accumulation at the PTH1R (in words)” value at PTH1R [2] is recorded as “failed to stimulate cAMP accumulation”. The “inhibition of agonist actions (in words)” value at PTH1R [3] is listed as “inhibited the actions of the three agonists”.

On to “PTH(15-34)amide (LNSMERVEWLRKKLQDVHNF; not fully specified (C-terminus); UniProt P01270 46-65, looked up, fragment)”, for which the “affinity for the PTH1R (in words)” value with PTH1R [4] was “very low (micromolar) affinity”.

These data come from patent US20040176285A1, “Tip39 polypeptides” (priority 2001, published 2004).
